Experimental data taken from ChEMBL document CHEMBL3885861, “Open TG-GATES”.
Where “and” joins values, the source holds several entries; their conditions need not be identical. Identical values can stand only once.

Organism: Rattus norvegicus
Assay: Open TG-GATES - Regimen: Single
Assay type: toxicity, organism-based, Sprague-Dawley
Parameters: regimen Single, gender Male, age 6 weeks
Settings: in vivo, po, route gavage; for LIVER: tissue Liver; for A/G / ALP / ALT / AST / BUN / CRE / Ca / Cl / GLC / IP / K / LDH / Na / PL / RALB / TBIL / TC / TG / TP / gamma-GTP / DBIL: tissue Plasma; for APTT / Bas / Eos / Fbg / Hb / Ht / Lym / MCH / MCHC / MCV / Mono / Neu / PT / Plat / RBC / Ret / WBC: tissue Blood; for KIDNEY_L / KIDNEY_R / KIDNEY_TOTAL: tissue Kidney
[1] = 0 mg/kg, 24 h, dose level Control

COc1ccc2c(c1)c(CC(=O)O)c(C)n2C(=O)c1ccc(Cl)cc1 [INDOMETHACIN]
LIVER [1]: 10.4 g and 11.1 g | A/G [1]: 2.1 and 1.6 | ALP [1]: 1109.6 IU/L and 886.6 IU/L | ALT [1]: 39.6 IU/L and 36.4 IU/L | AST [1]: 68 IU/L and 72.6 IU/L | BUN [1]: 18 mg/dL and 13.8 mg/dL | CRE [1]: 0.5 mg/dL and 0.4 mg/dL | Ca [1]: 10.5 mg/dL and 10.7 mg/dL | Cl [1]: 105 meq/L and 102.8 meq/L | GLC [1]: 185.4 mg/dL and 187.8 mg/dL | IP [1]: 8.8 mg/dL and 7.4 mg/dL | K [1]: 5.7 meq/L and 4.3 meq/L | LDH [1]: 106 IU/L and 240.2 IU/L | Na [1]: 138.8 meq/L and 140.6 meq/L | PL [1]: 153.2 mg/dL and 145.8 mg/dL | RALB [1]: 4 g/dL and 3.4 g/dL | TBIL [1]: 0.2 mg/dL and 0.1 mg/dL | TC [1]: 83.2 mg/dL and 72.2 mg/dL | TG [1]: 84 mg/dL and 116 mg/dL | TP [1]: 5.9 g/dL and 5.5 g/dL | gamma-GTP [1]: 1.2 IU/L and 1.4 IU/L | TERMINAL_BW (1 mg/kg, 3 h, dose level Low): 199.2 g | APTT (1 mg/kg, 3 h, dose level Low): 17.2 s | Bas (1 mg/kg, 3 h, dose level Low): 0% | Eos (1 mg/kg, 3 h, dose level Low): 0.6% | Fbg (1 mg/kg, 3 h, dose level Low): 222.4 mg/dL | Hb (1 mg/kg, 3 h, dose level Low): 13.3 g/dL | Ht (1 mg/kg, 3 h, dose level Low): 40% | Lym (1 mg/kg, 3 h, dose level Low): 81.2% | MCH (1 mg/kg, 3 h, dose level Low): 21.8 pg | MCHC (1 mg/kg, 3 h, dose level Low): 33.1% | MCV (1 mg/kg, 3 h, dose level Low): 65.7 fL | Mono (1 mg/kg, 3 h, dose level Low): 8.6% | Neu (1 mg/kg, 3 h, dose level Low): 9.8% | PT (1 mg/kg, 3 h, dose level Low): 12.4 s | Plat (1 mg/kg, 3 h, dose level Low): 99.5 x10_4/uL | RBC (1 mg/kg, 3 h, dose level Low): 610 x10_4/ul | Ret (1 mg/kg, 3 h, dose level Low): 9.6% | WBC (1 mg/kg, 3 h, dose level Low): 95.5 x10_2/uL | KIDNEY_L (1 mg/kg, 3 h, dose level Low): 0.9 g | KIDNEY_R (1 mg/kg, 3 h, dose level Low): 0.9 g | KIDNEY_TOTAL (1 mg/kg, 3 h, dose level Low): 1.8 g | LIVER (1 mg/kg, 3 h, dose level Low): 9.5 g | A/G (1 mg/kg, 3 h, dose level Low): 1.7 | ALP (1 mg/kg, 3 h, dose level Low): 1062.4 IU/L | ALT (1 mg/kg, 3 h, dose level Low): 37.4 IU/L | AST (1 mg/kg, 3 h, dose level Low): 68.6 IU/L | BUN (1 mg/kg, 3 h, dose level Low): 11.8 mg/dL | CRE (1 mg/kg, 3 h, dose level Low): 0.5 mg/dL | Ca (1 mg/kg, 3 h, dose level Low): 10.5 mg/dL | Cl (1 mg/kg, 3 h, dose level Low): 105.6 meq/L | DBIL (1 mg/kg, 3 h, dose level Low): 0.018 mg/dL | GLC (1 mg/kg, 3 h, dose level Low): 187.8 mg/dL | IP (1 mg/kg, 3 h, dose level Low): 9 mg/dL | K (1 mg/kg, 3 h, dose level Low): 4.8 meq/L | LDH (1 mg/kg, 3 h, dose level Low): 100 IU/L | Na (1 mg/kg, 3 h, dose level Low): 137.4 meq/L | PL (1 mg/kg, 3 h, dose level Low): 130.4 mg/dL | RALB (1 mg/kg, 3 h, dose level Low): 3.8 g/dL | TBIL (1 mg/kg, 3 h, dose level Low): 0.3 mg/dL | TC (1 mg/kg, 3 h, dose level Low): 75.6 mg/dL | TG (1 mg/kg, 3 h, dose level Low): 41.8 mg/dL | TP (1 mg/kg, 3 h, dose level Low): 6.1 g/dL | gamma-GTP (1 mg/kg, 3 h, dose level Low): 1.6 IU/L | TERMINAL_BW (1 mg/kg, 6 h, dose level Low): 195.5 g | APTT (1 mg/kg, 6 h, dose level Low): 16.7 s | Bas (1 mg/kg, 6 h, dose level Low): 0% | Eos (1 mg/kg, 6 h, dose level Low): 0.6% | Fbg (1 mg/kg, 6 h, dose level Low): 210.6 mg/dL | Hb (1 mg/kg, 6 h, dose level Low): 13.6 g/dL | Ht (1 mg/kg, 6 h, dose level Low): 41.1% | Lym (1 mg/kg, 6 h, dose level Low): 78.8% | MCH (1 mg/kg, 6 h, dose level Low): 21.8 pg | MCHC (1 mg/kg, 6 h, dose level Low): 33.1% | MCV (1 mg/kg, 6 h, dose level Low): 66 fL | Mono (1 mg/kg, 6 h, dose level Low): 9% | Neu (1 mg/kg, 6 h, dose level Low): 11.6% | PT (1 mg/kg, 6 h, dose level Low): 12.5 s | Plat (1 mg/kg, 6 h, dose level Low): 104.4 x10_4/uL | RBC (1 mg/kg, 6 h, dose level Low): 623.2 x10_4/ul | Ret (1 mg/kg, 6 h, dose level Low): 9.4% | WBC (1 mg/kg, 6 h, dose level Low): 102.9 x10_2/uL | KIDNEY_L (1 mg/kg, 6 h, dose level Low): 1 g | KIDNEY_R (1 mg/kg, 6 h, dose level Low): 0.9 g | KIDNEY_TOTAL (1 mg/kg, 6 h, dose level Low): 1.9 g | LIVER (1 mg/kg, 6 h, dose level Low): 8.8 g | A/G (1 mg/kg, 6 h, dose level Low): 1.7 | ALP (1 mg/kg, 6 h, dose level Low): 1218.4 IU/L | ALT (1 mg/kg, 6 h, dose level Low): 35.8 IU/L | AST (1 mg/kg, 6 h, dose level Low): 70.6 IU/L | BUN (1 mg/kg, 6 h, dose level Low): 11 mg/dL | CRE (1 mg/kg, 6 h, dose level Low): 0.5 mg/dL | Ca (1 mg/kg, 6 h, dose level Low): 10.2 mg/dL | Cl (1 mg/kg, 6 h, dose level Low): 105.6 meq/L | DBIL (1 mg/kg, 6 h, dose level Low): 0.02 mg/dL | GLC (1 mg/kg, 6 h, dose level Low): 191.4 mg/dL | IP (1 mg/kg, 6 h, dose level Low): 9.4 mg/dL | K (1 mg/kg, 6 h, dose level Low): 5.1 meq/L | LDH (1 mg/kg, 6 h, dose level Low): 83.6 IU/L | Na (1 mg/kg, 6 h, dose level Low): 136.8 meq/L | PL (1 mg/kg, 6 h, dose level Low): 126.4 mg/dL | RALB (1 mg/kg, 6 h, dose level Low): 3.8 g/dL | TBIL (1 mg/kg, 6 h, dose level Low): 0.3 mg/dL | TC (1 mg/kg, 6 h, dose level Low): 75.8 mg/dL | TG (1 mg/kg, 6 h, dose level Low): 53.2 mg/dL | TP (1 mg/kg, 6 h, dose level Low): 6 g/dL | gamma-GTP (1 mg/kg, 6 h, dose level Low): 1.4 IU/L | TERMINAL_BW (1 mg/kg, 9 h, dose level Low): 198.6 g | APTT (1 mg/kg, 9 h, dose level Low): 16.5 s | Bas (1 mg/kg, 9 h, dose level Low): 0% | Eos (1 mg/kg, 9 h, dose level Low): 0.8% | Fbg (1 mg/kg, 9 h, dose level Low): 213 mg/dL | Hb (1 mg/kg, 9 h, dose level Low): 13.1 g/dL | Ht (1 mg/kg, 9 h, dose level Low): 39.4% | Lym (1 mg/kg, 9 h, dose level Low): 83.6% | MCH (1 mg/kg, 9 h, dose level Low): 21.8 pg | MCHC (1 mg/kg, 9 h, dose level Low): 33.3% | MCV (1 mg/kg, 9 h, dose level Low): 65.5 fL | Mono (1 mg/kg, 9 h, dose level Low): 6.6% | Neu (1 mg/kg, 9 h, dose level Low): 9.2% | PT (1 mg/kg, 9 h, dose level Low): 12.6 s | Plat (1 mg/kg, 9 h, dose level Low): 102.1 x10_4/uL | RBC (1 mg/kg, 9 h, dose level Low): 602 x10_4/ul | Ret (1 mg/kg, 9 h, dose level Low): 10.2% | WBC (1 mg/kg, 9 h, dose level Low): 141 x10_2/uL | KIDNEY_L (1 mg/kg, 9 h, dose level Low): 0.9 g | KIDNEY_R (1 mg/kg, 9 h, dose level Low): 1 g | KIDNEY_TOTAL (1 mg/kg, 9 h, dose level Low): 1.9 g | LIVER (1 mg/kg, 9 h, dose level Low): 8 g | A/G (1 mg/kg, 9 h, dose level Low): 2.6 | ALP (1 mg/kg, 9 h, dose level Low): 915 IU/L | ALT (1 mg/kg, 9 h, dose level Low): 35.6 IU/L | AST (1 mg/kg, 9 h, dose level Low): 68.2 IU/L | BUN (1 mg/kg, 9 h, dose level Low): 10.6 mg/dL | CRE (1 mg/kg, 9 h, dose level Low): 0.5 mg/dL | Ca (1 mg/kg, 9 h, dose level Low): 10 mg/dL | Cl (1 mg/kg, 9 h, dose level Low): 106.8 meq/L | DBIL (1 mg/kg, 9 h, dose level Low): 0.072 mg/dL | GLC (1 mg/kg, 9 h, dose level Low): 187.4 mg/dL | IP (1 mg/kg, 9 h, dose level Low): 10 mg/dL | K (1 mg/kg, 9 h, dose level Low): 5.1 meq/L | LDH (1 mg/kg, 9 h, dose level Low): 92.8 IU/L | Na (1 mg/kg, 9 h, dose level Low): 137.4 meq/L | PL (1 mg/kg, 9 h, dose level Low): 141.6 mg/dL | RALB (1 mg/kg, 9 h, dose level Low): 3.8 g/dL | TBIL (1 mg/kg, 9 h, dose level Low): 0.5 mg/dL | TC (1 mg/kg, 9 h, dose level Low): 85.8 mg/dL | TG (1 mg/kg, 9 h, dose level Low): 45.2 mg/dL
